# Measured values: PMC4074815, “An Impermeant Ganetespib Analog Inhibits Extracellular Hsp90-Mediated Cancer Cell Migration that Involves Lysyl Oxidase 2-like Protein” (Cancers, 2014)
# Molecular target: T1, Hsp90 alpha (Homo sapiens, UniProt P07900)
# T1 construct: gene HSP90AA1; Hsp90alpha recombinant enzyme (BPS Bioscience Hsp90α assay kit, Cat #50294)
# Assay: fluorescence polarization competition with FITC-labeled geldanamycin
# Format: binding
compound,measurement,value
CC(C)c1cc(-c2nnc(O)n2-c2ccc3c(ccn3CCNC(=O)CCCC[C@@H]3SC[C@@H]4NC(=O)N[C@@H]43)c2)c(O)cc1O [STA-12-7191],IC50,62 nM
